Experimental data published in paper PMC6272931, “Acacetin Protects Mice from Staphylococcus aureus Bloodstream Infection by Inhibiting the Activity of Sortase A” (Molecules, 2016).

Target: T1, Sortase A (SrtA) (Staphylococcus aureus, UniProt Q2FV99)
T1 construct: SrtAΔN59
Assay: FRET peptide cleavage assay (Dabcyl-QALPETGEE-Edans) with purified SrtAΔN59, […] CaCl2 in the buffer
Type: biochemical

T1 sequence (Q2FV99 60-206): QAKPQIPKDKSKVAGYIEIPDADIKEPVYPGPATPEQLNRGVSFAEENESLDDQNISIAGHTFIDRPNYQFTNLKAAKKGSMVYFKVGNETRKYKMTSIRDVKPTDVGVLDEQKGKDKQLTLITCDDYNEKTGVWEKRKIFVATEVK

Q: How did the IC50 turn out when `COc1ccc(-c2cc(=O)c3c(O)cc(O)cc3o2)cc1` [acacetin, 5,7-dihydroxy-2-(4-methoxyphenyl)chromen-4-one] was run?
A: The IC50 was 128 µM.
